Data taken from PubChem BioAssay (NCI).
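A five-concentration, 48-hour dose response in 96-well plates underlies each endpoint, interpolated linearly between surrounding concentrations. TGI: total growth inhibition.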

Legend:
Experiment in all cases: growth of human tumour cells (NCI), 48 h
NCI-H226 lung = tested on: NCI-H226 lung
HT29 colon = tested on: HT29 colon
SW-620 colon = tested on: SW-620 colon
NCI-H460 lung = tested on: NCI-H460 lung
LOX IMVI melanoma = tested on: LOX IMVI melanoma
SNB-19 CNS = tested on: SNB-19 CNS
SF-268 CNS = tested on: SF-268 CNS
CAKI-1 renal = tested on: CAKI-1 renal
SNB-75 CNS = tested on: SNB-75 CNS
TK-10 renal = tested on: TK-10 renal
OVCAR-8 ovarian = tested on: OVCAR-8 ovarian
UACC-257 melanoma = tested on: UACC-257 melanoma
IGROV1 ovarian = tested on: IGROV1 ovarian
SK-OV-3 ovarian = tested on: SK-OV-3 ovarian
HCT-116 colon = tested on: HCT-116 colon
MDA-MB-231 breast = tested on: MDA-MB-231 breast
DU-145 prostate = tested on: DU-145 prostate
MCF7 breast = tested on: MCF7 breast
T-47D breast = tested on: T-47D breast
PC-3 prostate = tested on: PC-3 prostate

Row | Compound | TGI (NCI-H226 lung) [µM] | TGI (HT29 colon) [µM] | TGI (SW-620 colon) [µM] | TGI (NCI-H460 lung) [µM] | TGI (LOX IMVI melanoma) [µM] | TGI (SNB-19 CNS) [µM] | TGI (SF-268 CNS) [µM] | TGI (CAKI-1 renal) [µM] | TGI (SNB-75 CNS) [µM] | TGI (TK-10 renal) [µM] | TGI (OVCAR-8 ovarian) [µM] | TGI (UACC-257 melanoma) [µM] | TGI (IGROV1 ovarian) [µM] | TGI (SK-OV-3 ovarian) [µM] | TGI (HCT-116 colon) [µM] | TGI (MDA-MB-231 breast) [µM] | TGI (DU-145 prostate) [µM] | TGI (MCF7 breast) [µM] | TGI (T-47D breast) [µM] | TGI (PC-3 prostate) [µM]
1 | C=C[C@]1(C)CCC2=C(CCC3C2(C)CCC[C@]3(C)CO)C1 (some centres undefined) | > 100 | 48 | > 100 | > 100 | 68 | > 100 | > 100 | > 100 | > 100 | > 100 | > 100 | > 100 | > 100 | > 100 | > 100 |  |  |  |  | 
2 | COC1C=CC(C(=O)[N+]2=Cc3[nH]c4ccccc4c3CC2)O1 (centres undefined) | > 100 | > 100 | > 100 | > 100 | > 100 | > 100 | > 100 | > 100 | > 100 | > 100 | > 100 | > 100 | > 100 | > 100 | > 100 |  |  |  |  | 
3 | COc1ccc(NC(=O)C(=O)C2CNC(=O)NC2=O)c(OC)c1 (centres undefined) | > 100 | > 100 | > 100 | > 100 | > 100 | > 100 | > 100 | > 100 | > 100 | > 100 | > 100 | > 100 | > 100 | > 100 | > 100 |  |  |  |  | 
4 | O=C1c2cccnc2S(=O)N1Cc1ccccc1 (centres undefined) | > 100 | > 100 | > 100 | > 100 |  | > 100 | > 100 | > 100 | > 100 | > 100 | > 100 | > 100 | > 100 | > 100 | > 100 | > 100 | > 100 | > 100 | > 100 | 
5 | CCOc1ccccc1N=Nc1c(-c2ccccc2)nn(C(=O)CC(=O)Nc2cccc(Cl)c2)c1-c1ccccc1 | > 100 | > 100 | > 100 | > 100 | > 100 | > 100 | > 100 | > 100 | > 100 | > 100 | > 100 | > 100 | > 100 | > 100 | > 100 |  |  |  |  | 
6 | O=C1c2ccccc2-c2nc3ccc(O)cc3n21 | > 100 | > 100 | > 100 | > 100 |  | > 100 | > 100 | > 100 | > 100 | > 100 | > 100 | > 100 | > 100 | > 100 | > 100 |  | > 100 | > 100 |  | > 100
7 | NCC#CCNCCCN1CC1 | > 100 | > 100 | > 100 | > 100 | > 100 | > 100 | > 100 | > 100 |  | > 100 | > 100 | > 100 | > 100 | > 100 | > 100 |  | > 100 | > 100 | > 100 | > 100
8 | OCC1OC(Oc2cc(O)cc(/C=C\c3ccc(O)cc3)c2)C(O)C(O)C1O (centres undefined) | > 100 | > 100 | > 100 | > 100 | > 100 | > 100 |  | > 100 | > 100 | > 100 | > 100 | > 100 | > 100 | > 100 | > 100 | > 100 | > 100 | > 100 |  | > 100
9 | CCOC(=O)c1nc2ccccc2nc1NCc1ccc(OC)cc1 | > 100 | > 100 | > 100 | > 100 | > 100 |  | > 100 | > 100 | > 100 | > 100 | > 100 | > 100 | > 100 | > 100 | > 100 | > 100 | > 100 | > 100 | > 100 | 
10 | CCOC(=O)C(Cc1ccccc1)NC(=O)c1ccc(N=NN(C)C)cc1 (centres undefined) | > 100 | > 100 | > 100 | > 100 | > 100 | > 100 | > 100 | > 100 | > 100 | > 100 | > 100 | > 100 | > 100 | > 100 | > 100 |  |  |  |  | 
11 | O=C(NCc1ccccc1)c1cc2cc(O)c(O)cc2cn1 | 89.9 | 70.4 | > 100 | 91.6 | 66.4 | > 100 | 75.1 | 98.5 | 84.5 | > 100 | 89.7 | 73.1 | 73.2 | > 100 | > 100 |  |  |  |  | 
12 | CCCN1CN(C(C(=O)N[C@@H]2C(=O)N3C2SC(C)(C)C3C(=O)O)c2ccccc2)CSC1=S (some centres undefined) |  | > 100 | 31.7 | > 100 | > 100 | > 100 | > 100 | > 100 | > 100 | > 100 | > 100 | > 100 | > 100 | > 100 | > 100 |  |  |  |  | 
13 | COC(=O)N/N=C(/CCN1CCCC1)CC(c1ccccc1)c1c(O)c2ccccc2oc1=O (centres undefined) | > 100 | > 100 | > 100 | > 100 | > 100 | > 100 | > 100 | > 100 | > 100 | > 100 | > 100 | > 100 | > 100 | > 100 | > 100 |  |  |  |  | 
14 | Cc1ccc([N+](=O)[O-])cc1NC(=O)C(=O)Cc1occc(=O)c1O | > 100 | > 100 | > 100 | > 100 | > 100 | > 100 | > 100 | > 100 | > 100 | > 100 | > 100 |  | > 100 | > 100 |  |  |  |  |  | 
15 | Cn1c(=O)[nH]c2[nH]c3ccccc3c2c1=O | > 100 | > 100 | > 100 |  | > 100 | > 100 | > 100 | > 100 | > 100 | > 100 | > 100 | > 100 | > 100 | > 100 | > 100 | > 100 | > 100 | > 100 | > 100 | 
